Measurements from patent US9801850B2, “Antibacterial agent” (OSAKA UNIVERSITY, priority 2009, dated 2017).

Assays:
fungi = experiment: Antifungal effect over the fungi of Table 8; format: cell-based; conditions: respective types of fungi of Table 8
Protocol: Regarding the respective type strains shown in Tables 7 and 8 below, the MIC measurement was performed using the antibacterial agent solutions of Example 2 in the same manner as described in Section (2) of Example 1, except for the following. The antibacterial agent solutions were prepared by dissolving the EGCG derivatives of Example 2 in 100% DMSO and then diluting the resultant mixtures with sterile distilled water. The respective strains were derived from ATCC or NCTC. As Moraxella catarrhalis and Aspergillus fumigatus, clinical isolates thereof without an acquired resistance mechanism were used. For nutrient-rich bacteria, namely, Streptococcus pneumoniae ATCC49619, Streptococcus pyogenes ATCC19615, Streptococcus agalactiae ATCC13813, Moraxella catarrhalis, and Haemophilis influenzae ATCC49766, Strepto Haemo supplement (Eiken Chemical Co., Ltd.) was added to media for culturing them. The MIC measurement with respect to fungi was carried out by a broth microdilution method using a RPMI1640/MOPS (pH 7.0) medium in accordance with CLSI guidelines. About 2×10^3 cells/ml of fungi were inoculated to the medium. After the culture at 35° C. for 24 to 48 hours, the MIC was determined. Also, regarding the antibacterial agent solution of Comparative Example 2, the MIC was measured in the same manner.

MRSA ATCC43300 [1] = experiment: Membrane damaging properties, SYTOX Green fluorescence (Example 4); format: cell-based, Staphylococcus aureus; conditions: for fluorescence intensity ratio of SYTOX Green (control PBS = 1): 37° C., 15 minutes, EGCG derivative 4-32, EGCG 8-128, NISIN 1-8 μg/ml, FIG. 3
Protocol: (§1) As an antibacterial agent, the EGCG-C16 prepared in Example 1 was used in Example 4; EGCG was used in Comparative Example 4; and membrane-damaging peptide NISIN (MP Biomedicals) was used in a reference example. Antibacterial agent solutions of EGCG-C16 and EGCG were prepared by dissolving them in DMSO so as to achieve top concentrations, respectively. An antibacterial agent solution of the other antibacterial agent was prepared by dissolving it in PBS and diluted with PBS as appropriate. The influence of DMSO used for dissolving the antibacterial agents also was considered.
MSSA ATCC25923 and MRSA ATCC43300 were subjected to shaking culture in MH-broths (Difco) until they reached a late stage in the exponential growth phase. The thus-obtained culture solutions were each centrifuged at 7000 rpm for 10 minutes, and bacterial cells that had settled were suspended in PBS. The suspension of the bacterial cells was added to wells of a 384 black plate, and each of the antibacterial agent solutions was further added thereto and mixed. The resultant mixture was incubated at 37° C. for 15 minutes. Subsequently, a dead cell-staining dye (trade name “SYTOX Green”, LONZA) was mixed in each well so that the concentration thereof became 10 μmol/l, and the resultant mixture was incubated at 37° C. for 10 minutes. The final concentrations of the respective antibacterial agents were as follows: 4, 8, 16, and 32 μg/ml for the EGCG derivative; 8, 16, 32, 64, and 128 μg/ml for EGCG; and 1, 2, 4, and 8 μg/ml for NISIN. […] On the other hand, as a control, the fluorescence intensity was measured in the same manner, except that PBS or 10% DMSO was added instead of the antibacterial agent solutions. Then, regarding each of the MSSA and MRSA, the ratio of the fluorescence intensity when each of the agents was added was calculated assuming that the fluorescence intensity obtained in the control (PBS) was 1.

MSSA ATCC25923 [2] = experiment: as above; format: cell-based, Staphylococcus aureus; conditions: for fluorescence intensity ratio of SYTOX Green (control PBS = 1): 37° C., 15 minutes, EGCG derivative 4-32, EGCG 8-128, NISIN 1-8 μg/ml, FIG. 3
Protocol: as §1
MSSA ATCC25923 and MRSA ATCC43300 were subjected to shaking culture in MH-broths (Difco) until they reached a late stage in the exponential growth phase. The thus-obtained culture solutions were each centrifuged at 7000 rpm for 10 minutes, and bacterial cells that had settled were suspended in PBS. The suspension of the bacterial cells was added to wells of a 384 black plate, and each of the antibacterial agent solutions was further added thereto and mixed. The resultant mixture was incubated at 37° C. for 15 minutes. Subsequently, a dead cell-staining dye (trade name “SYTOX Green”, LONZA) was mixed in each well so that the concentration thereof became 10 μmol/l, and the resultant mixture was incubated at 37° C. for 10 minutes. […] On the other hand, as a control, the fluorescence intensity was measured in the same manner, except that PBS or 10% DMSO was added instead of the antibacterial agent solutions. Then, regarding each of the MSSA and MRSA, the ratio of the fluorescence intensity when each of the agents was added was calculated assuming that the fluorescence intensity obtained in the control (PBS) was 1.

MRSA ATCC43300 [3] = experiment: MIC with addition of PG, LPS or D-Ala-D-Ala (Example 3); format: cell-based, Staphylococcus aureus; conditions: MRSA (ATCC43300)
Protocol: (§2) Regarding EGCG-C16, whether or not the antibacterial action thereof against MSSA and MRSA is inhibited by the addition of: peptidoglycan (PG) or D-Ala-D-Ala, which are each a cell wall component; or lipopolysaccharide (LPS), which is an outer membrane component, was examined. The MIC measurement was carried out in the manner described in Section (2) of Example 2.
(§3) In Example 3, EGCG-C16 prepared in Example 1 was used as an antibacterial agent. In Comparative Example 3, unsubstituted EGCG was used as an antibacterial agent. […] Antibacterial agent solutions of EGCG-C16 and EGCG were prepared in the same manner as described in Section (2) of Example 1. Antibacterial agent solutions of the antibacterial agents other than EGCG-C16 and EGCG were prepared by dissolving them in PBS.
(§4) As additives, PG (Peptidoglycan Staphylococcus aureus, SIGMA-ALDRICH), D-Ala-D-Ala (SIGMA-ALDRICH), and LPS (Lipopolysaccharide Salmonella, SIGMA-ALDRICH) were provided. Each of the additives was dissolved in PBS, and the resultant solution was used as an additive solution.
(§5) Dilution series of the antibacterial agent solutions were prepared. Each of them was dispensed to a 96-well plate. Further, the additive solution was added thereto and mixed. After that, a bacterial culture solution of MRSA ATCC43300 or MSSA ATCC25923 was added thereto and cultured at 37° C. for 18 hours. In the mixture of the antibacterial agent solution, the additive solution, and the bacterial culture solution, the final concentrations of PG, D-Ala-D-Ala, and LPS were each set to 30 μg/ml. Unless otherwise stated, the minimum inhibitory concentration (MIC) was calculated in the same manner as described in Section (2) of Example 2.

MSSA ATCC25923 [4] = experiment: as above; format: cell-based, Staphylococcus aureus; conditions: MSSA (ATCC25923)
Protocol: as §2, §3, §4, §5

[5] = +LPS (30 μg/mL), upper part of Table 9
[6] = +PG (30 μg/mL), upper part of Table 9 (PG/LPS series)
[7] = MH-broth free of additives, upper part of Table 9 (PG/LPS series)
[8] = +D-Ala-D-Ala (30 μg/mL), lower part of Table 9
[9] = +PG (30 μg/mL), lower part of Table 9 (PG/D-Ala-D-Ala series)
[10] = MH-broth free of additives, lower part of Table 9 (PG/D-Ala-D-Ala series)

Row | Compound | antifungal effect (fungi) | fluorescence intensity ratio of SYTOX Green (control PBS = 1) (MRSA ATCC43300 [1]) | fluorescence intensity ratio of SYTOX Green (control PBS = 1) (MSSA ATCC25923 [2]) | MIC (MRSA ATCC43300 [3]; [5]) | MIC (MRSA ATCC43300 [3]; [6]) | MIC (MRSA ATCC43300 [3]; [7]) | MIC (MSSA ATCC25923 [4]; [5]) | MIC (MSSA ATCC25923 [4]; [6]) | MIC (MSSA ATCC25923 [4]; [7]) | cell membrane-damaging action at high concentration (SYTOX Green) (MRSA ATCC43300 [1]; EGCG-C16 at 64 μg/ml) | cell membrane-damaging action at high concentration (SYTOX Green) (MSSA ATCC25923 [2]; EGCG-C16 at 64 μg/ml) | MIC (MRSA ATCC43300 [3]; [8]) | MIC (MRSA ATCC43300 [3]; [9]) | MIC (MRSA ATCC43300 [3]; [10]) | MIC (MSSA ATCC25923 [4]; [8]) | MIC (MSSA ATCC25923 [4]; [9]) | MIC (MSSA ATCC25923 [4]; [10])
1 | EGCG-palmitoleate [EGCG-C16E] | highest antifungal effect | – | – | – | – | – | – | – | – | – | – | – | – | – | – | – | –
2 | O=C(O[C@@H]1Cc2c(O)cc(O)cc2O[C@@H]1c1cc(O)c(O)c(O)c1)c1cc(O)c(O)c(O)c1 [EGCG, Epigallocatechin gallate, reference compound] | – | smaller than 1 | smaller than 1 | > 64 µg/mL | > 64 µg/mL | > 64 µg/mL | > 64 µg/mL | > 64 µg/mL | > 64 µg/mL | – | – | – | – | – | – | – | –
3 | EGCG-α-linoleate [EGCG-C18TE] | highest antifungal effect | – | – | – | – | – | – | – | – | – | – | – | – | – | – | – | –
4 | EGCG-palmitate [EGCG-C16] | – | very high fluorescence intensity ratio | very high fluorescence intensity ratio | 16 µg/mL | 32 µg/mL | 16 µg/mL | 16 µg/mL | 32 µg/mL | 16 µg/mL | tendency for this action of EGCG-C16 to become weak | tendency for this action of EGCG-C16 to become weak | 8 µg/mL | 16 µg/mL | 8 µg/mL | 16 µg/mL | 32 µg/mL | 16 µg/mL
